Experiment [1] concerns the target T1, hClpP (Homo sapiens, UniProt Q16740).
T1 construct: made in house
Kind of experiment: activating ClpP hydrolysis of FITC-casein (fluorescence kinetic detection). The experiment is classed as biochemical. The settings on record: hClpP 1 μM, FITC-Casein 4 μM, 37° C. The method, then: The specific procedures were as follows:
Test compounds were each prepared into a 100 mM stock solution in DMSO and stored. and 1 μL of stock solution of each of the compounds was taken and diluted to 10 mM by adding 9 μL of DMSO for later use.
The compounds of formula I of the present invention were each diluted at concentrations of 200 μM, 50 μM, 10 μM, 2 μM, 500 nM, 100 nM, 20 nM, and 2 nM in an assay buffer. 50 μL of each of the compounds at different concentrations was added to each well, with 2 replicate wells.
The protein was diluted to 4 μM in an assay buffer. 25 μL of protein was added to each well, and incubated at 37° C. for 30 min. The final concentration was 1 μM.
25 μL of FITC-Casein was added to each well. The final concentration was 4 μM. The mixture was immediately loaded on the machine for detection.
FITC-Casein and FITC-Casein+ClpP were used as negative controls.
The detection temperature was 37° C. The plate was shaken for 3 s. […] Kinetic parameters were set, and scanning was performed once every 1 min for 15 min.

Experiment [2] has as its system MV4; 11 cells. The experiment in a line: inhibiting the growth of MV4; 11 cells. The experiment is classed as cell-based. The settings on record: Homo sapiens.

Structures are written as SMILES. pEC50, pIC50: −log10 of the molar value. Bounds are passed on as bounds.

T1 sequence (Q16740 57-277): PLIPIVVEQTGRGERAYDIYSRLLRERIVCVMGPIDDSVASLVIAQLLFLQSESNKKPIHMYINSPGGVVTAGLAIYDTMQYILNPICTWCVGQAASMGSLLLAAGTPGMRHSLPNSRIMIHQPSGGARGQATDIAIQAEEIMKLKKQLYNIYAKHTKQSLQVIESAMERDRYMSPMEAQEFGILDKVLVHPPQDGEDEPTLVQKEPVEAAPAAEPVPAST

The molecule `O=c1c2c(c3cccnc3n1Cc1ccc(Br)cc1)CCN(Cc1cccc(Br)c1)C2` [Compound I-79, 3-(3-bromobenzyl)-6-(4-bromobenzyl)-2,3,4,6-tetrahydropyrido[3,4-c][1,8]naphthyridine-5-(1H)-one] gave a negative-log EC50 (pEC50) in experiment [1] above 6.00. Besides, the negative logarithm of the IC50 (pIC50) in experiment [2] is above 6.00.
In experiment [1], `O=c1c2c(c3cccnc3n1Cc1ccc(Br)cc1)CCN(Cc1cccc(Cl)c1)C2` [Compound I-78, 3-(3-chlorobenzyl)-6-(4-bromobenzyl)-2,3,4,6-tetrahydropyrido[3,4-c][1,8]naphthyridine-5-(1H)-one] showed a negative-log EC50 (pEC50) above 6.00. The same molecule had a negative logarithm of the IC50 (pIC50) in experiment [2] above 6.00.
With `N#Cc1cccc(CN2CCc3c(c(=O)n(Cc4ccc(F)cc4)c4nccn34)C2)c1` [Compound I-116, 7-(3-cyanobenzyl)-4-(4-fluorobenzyl)-6,7,8,9-tetrahydroimidazo[1,2-a]pyrido[3,4-e]pyrimidine-5(4H)-one], the negative logarithm of the EC50 (pEC50) in experiment [1] is above 6.00. The negative logarithm of the IC50 (pIC50) in experiment [2] was above 6.00.
`Cc1cccc(CN2CCc3c(c(=O)n(Cc4ccccc4)c4ccnn34)C2)c1` [Compound I-158, 4-benzyl-7-(3-methylbenzyl)-6,7,8,9-tetrahydropyrazolo[1,5-a]pyrido[3,4-e]pyrimidine-5(4H)-one] gave a pEC50 in experiment [1] of 5.00 to 6.00. This molecule gave a negative logarithm of the IC50 (pIC50) in experiment [2] of 5.00 to 6.00.
The molecule `COc1ccc(Cn2c(=O)c3c(c4cccnc42)CCN(Cc2cccc(F)c2)C3)cc1` [Compound I-99, 6-(4-methoxybenzyl)-3-(3-fluorobenzyl)-2,3,4,6-tetrahydropyrido[3,4-c][1,8]naphthyridine-5-(1H)-one] gave a pEC50 in experiment [1] above 6.00. In experiment [2], the pIC50 is above 6.00.
Turning to `CCc1cccc(Cn2c(=O)c3c(c4cccnc42)CCN(Cc2ccccc2)C3)c1` [Compound I-50, 3-benzyl-6-(3-ethylbenzyl)-2,3,4,6-tetrahydropyrido[3,4-c][1,8]naphthyridine-5-(1H)-one], the negative logarithm of the EC50 (pEC50) in experiment [1] is above 6.00. In experiment [2], this molecule showed a negative logarithm of the IC50 (pIC50) above 6.00.
`O=c1c2c(c3cccnc3n1Cc1cccc(F)c1)CCN(Cc1ccccc1)C2` [Compound I-46, 3-benzyl-6-(3-fluorobenzyl)-2,3,4,6-tetrahydropyrido[3,4-c][1,8]naphthyridine-5-(1H)-one]: in experiment [1], the pEC50 was above 6.00. Also, in experiment [2], the negative logarithm of the IC50 (pIC50) is above 6.00.
Take `CCc1cccc(CN2CCc3c(c(=O)n(Cc4ccccc4)c4ncccc34)C2)c1` [Compound I-16, 6-benzyl-3-(3-ethylbenzyl)-2,3,4,6-tetrahydropyrido[3,4-c][1,8]naphthyridine-5-(1H)-one]: the pEC50 in experiment [1] was 5.00 to 6.00. This molecule also showed a negative-log IC50 (pIC50) in experiment [2] above 6.00.
With `O=c1c2c(c3cccnc3n1Cc1ccc(Cl)cc1)CCN(Cc1cccc(F)c1)C2` [Compound I-74, 3-(3-fluorobenzyl)-6-(4-chlorobenzyl)-2,3,4,6-tetrahydropyrido[3,4-c][1,8]naphthyridine-5-(1H)-one], the negative logarithm of the EC50 (pEC50) in experiment [1] is above 6.00. The same molecule gave a pIC50 in experiment [2] above 6.00.
`O=c1c2c(c3cccnc3n1Cc1ccccc1)CCN(Cc1ccccc1Br)C2` [Compound I-8, 6-benzyl-3-(2-bromobenzyl)-2,3,4,6-tetrahydropyrido[3,4-c][1,8]naphthyridine-5-(1H)-one] had a negative logarithm of the EC50 (pEC50) in experiment [1] of 5.00 to 6.00. Further, in experiment [2], the pIC50 was above 6.00.
In experiment [1], `O=c1c2c(n3ccnc3n1Cc1ccc(F)cc1F)CCN(Cc1cccc(Cl)c1)C2` [Compound I-124, 7-(3-chlorobenzyl)-4-(2,4-difluorobenzyl)-6,7,8,9-tetrahydroimidazo[1,2-a]pyrido[3,4-e]pyrimidine-5(4H)-one] gave a negative-log EC50 (pEC50) above 6.00. The negative-log IC50 (pIC50) in experiment [2] is above 6.00.
In turn, `O=c1c2c(c3cccnc3n1Cc1ccccc1)CCN(CC1CCCCC1)C2` [Compound I-4, 6-benzyl-3-(cyclohexylmethyl)-2,3,4,6-tetrahydropyrido[3,4-c][1,8]naphthyridine-5-(1H)-one] had a pEC50 in experiment [1] of 4.00 to 5.00. In addition, the pIC50 in experiment [2] is above 6.00.
The like results for `O=c1c2c(c3ccccc3n1Cc1ccc(C(F)(F)F)cc1)CCN(Cc1ccccc1)C2` [Compound I-80, 3-benzyl-6-(4-(trifluoromethyl)benzyl)-2,3,4,6-tetrahydrobenzo[c][2,7]naphthyridine-5-(1H)-one] were, in that order, above 6.00 and above 6.00.
As for `N#Cc1cccc(CN2CCc3c(c(=O)n(Cc4ccc(C(F)(F)F)cc4)c4ncnn34)C2)c1` [Compound I-151, 4-(4-trifluoromethylbenzyl)-7-(3-cyanobenzyl)-6,7,8,9-tetrahydropyrido[3,4-e][1,2,4]triazolo[1,5-a]pyrimidine-5(4H)-one], the pEC50 in experiment [1] is 5.00 to 6.00. The negative logarithm of the IC50 (pIC50) in experiment [2] is 5.00 to 6.00.
As for `COc1ccc(Cn2c(=O)c3c(n4ccnc24)CCN(Cc2ccccc2)C3)cc1` [Compound I-142, 7-benzyl-4-(4-methoxybenzyl)-6,7,8,9-tetrahydroimidazo[1,2-a]pyrido[3,4-e]pyrimidine-5(4H)-one], the pEC50 in experiment [1] was above 6.00. Also, the negative-log IC50 (pIC50) in experiment [2] is above 6.00.
For `O=c1c2c(c3cccnc3n1Cc1ccc(Cl)cc1)CCN(Cc1ccccc1)C2` [Compound I-53, 3-benzyl-6-(4-chlorobenzyl)-2,3,4,6-tetrahydropyrido[3,4-c][1,8]naphthyridine-5-(1H)-one], the negative-log EC50 (pEC50) in experiment [1] was above 6.00. Besides, the negative-log IC50 (pIC50) in experiment [2] was above 6.00.
Consider `CCc1ccc(Cn2c(=O)c3c(n4ccnc24)CCN(Cc2ccccc2)C3)cc1` [Compound I-137, 7-benzyl-4-(4-ethylbenzyl)-6,7,8,9-tetrahydroimidazo[1,2-a]pyrido[3,4-e]pyrimidine-5(4H)-one], for which the negative-log EC50 (pEC50) in experiment [1] is above 6.00. In experiment [2], this molecule had a pIC50 above 6.00.
Take `N#Cc1cccc(CN2CCc3c(c(=O)n(Cc4ccc(Cl)cc4)c4ccnn34)C2)c1` [Compound I-163, 4-(4-chlorobenzyl)-7-(3-cyanobenzyl)-6,7,8,9-tetrahydropyrazolo[1,5-a]pyrido[3,4-e]pyrimidine-5(4H)-one]: in experiment [1], the pEC50 is 5.00 to 6.00. Further, in experiment [2], the negative-log IC50 (pIC50) is 5.00 to 6.00.
In experiment [1], `O=c1c2c(n3ccnc3n1Cc1ccc(F)cc1)CCN(Cc1cccc(Cl)c1)C2` [Compound I-114, 7-(3-chlorobenzyl)-4-(4-fluorobenzyl)-6,7,8,9-tetrahydroimidazo[1,2-a]pyrido[3,4-e]pyrimidine-5(4H)-one] gave a negative-log EC50 (pEC50) above 6.00. This molecule gave a pIC50 in experiment [2] above 6.00.
Take `Cn1nccc1CN1CCc2c(c(=O)n(Cc3ccccc3)c3ncccc23)C1` [Compound I-25, 6-benzyl-3-((1-methyl-1H-pyrazol-5-yl)methyl)-2,3,4,6-tetrahydropyrido[3,4-c][1,8]naphthyridine-5-(1H)-one]: in experiment [1], the pEC50 is 4.00 to 5.00. This molecule showed a negative-log IC50 (pIC50) in experiment [2] of 5.00 to 6.00.
The molecule `O=c1c2c(c3cccnc3n1Cc1ccc(Cl)cc1)CCN(Cc1cccc(Br)c1)C2` [Compound I-76, 3-(3-bromobenzyl)-6-(4-chlorobenzyl)-2,3,4,6-tetrahydropyrido[3,4-c][1,8]naphthyridine-5-(1H)-one] showed a negative logarithm of the EC50 (pEC50) in experiment [1] above 6.00. Moreover, the pIC50 in experiment [2] was above 6.00.
In the case of `Cc1ccccc1Cn1c(=O)c2c(n3ccnc13)CCN(Cc1ccccc1)C2` [Compound I-106, 7-benzyl-4-(2-methylbenzyl)-6,7,8,9-tetrahydroimidazo[1,2-a]pyrido[3,4-e]pyrimidine-5(4H)-one], the pEC50 in experiment [1] is 5.00 to 6.00. The negative-log IC50 (pIC50) in experiment [2] is 5.00 to 6.00.
In turn, `CCc1ccccc1CN1CCc2c(c(=O)n(Cc3ccccc3)c3ncccc23)C1` [Compound I-10, 6-benzyl-3-(2-ethylbenzyl)-2,3,4,6-tetrahydropyrido[3,4-c][1,8]naphthyridine-5-(1H)-one] showed a pEC50 in experiment [1] of 5.00 to 6.00. The pIC50 in experiment [2] is above 6.00.
The like results for `O=c1c2c(n3cccc3n1Cc1ccc(Cl)cc1)CCN(Cc1cccc(Cl)c1)C2` [Compound I-169, 3-(3-chlorobenzyl)-6-(4-chlorobenzyl)-1,2,3,4-tetrahydropyrido[3,4-e]pyrrolo[1,2-a]pyrimidine-5(6H)-one] were, in that order, above 6.00 and above 6.00.
In experiment [1], `COc1ccc(Cn2c(=O)c3c(c4cccnc42)CCN(Cc2ccccc2)C3)cc1` [Compound I-57, 3-benzyl-6-(4-methoxybenzyl)-2,3,4,6-tetrahydropyrido[3,4-c][1,8]naphthyridine-5-(1H)-one] gave a pEC50 above 6.00. Besides, in experiment [2], the negative-log IC50 (pIC50) is above 6.00.
The molecule `O=c1c2c(c3cccnc3n1Cc1ccc(F)cc1)CCN(Cc1ccccc1)C2` [Compound I-52, 3-benzyl-6-(4-fluorobenzyl)-2,3,4,6-tetrahydropyrido[3,4-c][1,8]naphthyridine-5-(1H)-one] had a pEC50 in experiment [1] above 6.00. The pIC50 in experiment [2] is above 6.00.
Turning to `O=c1c2c(n3ccnc3n1Cc1ccc(Cl)cc1)CCN(Cc1cccc(Cl)c1)C2` [Compound I-119, 7-(3-chlorobenzyl)-4-(4-chlorobenzyl)-6,7,8,9-tetrahydroimidazo[1,2-a]pyrido[3,4-e]pyrimidine-5(4H)-one], the pEC50 in experiment [1] is above 6.00. This molecule had a pIC50 in experiment [2] above 6.00.
For `O=c1c2c(n3ncnc3n1Cc1ccc(C(F)(F)F)cc1)CCN(Cc1ccccc1)C2` [Compound I-149, 4-(4-trifluoromethylbenzyl)-7-benzyl-6,7,8,9-tetrahydropyrido[3,4-e][1,2,4]triazolo[1,5-a]pyrimidine-5(4H)-one], in experiment [1], the pEC50 is 5.00 to 6.00. Besides, the pIC50 in experiment [2] is 5.00 to 6.00.
Molecule `Cn1cnc(Cn2c(=O)c3c(c4cccnc42)CCN(Cc2ccccc2)C3)c1` [Compound I-66, 3-benzyl-6-((1-methyl-1H-imidazol-4-yl)methyl)-2,3,4,6-tetrahydropyrido[3,4-c][1,8]naphthyridine-5-(1H)-one] gave a pEC50 in experiment [1] of 4.00 to 5.00. Also, the negative logarithm of the IC50 (pIC50) in experiment [2] is 5.00 to 6.00.

Values taken from patent US20240327408A1, “COMPOUNDS CONTAINING TETRAHYDRONAPHTHYRIDINONE OR TETRAHYDROPYRIDOPYRIMIDINONE SKELETON, PREPARATION METHOD THEREFOR AND PHARMACEUTICAL USE THEREOF” (CHINA PHARMACEUTICAL UNIVERSITY, priority 2021, published 2024).
